A word on the EC50: it is the concentration that produces a half-maximal response. A word on the Emax: it is the size of the effect at its maximum, as opposed to the concentration needed.

The experiment deals with human F508del-CFTR (Homo sapiens, UniProt P13569, DEL508-508). Briefly: F508del-CFTR cell surface expression (corrector activity), DiscoveRx ß-galactosidase complementation chemiluminescence assay in recombinant U2OS cell line.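 On all read-outs here: U2OS cells co-expressing ProLink-tagged F508del-CFTR and a membrane-anchored enzyme acceptor, where more surface CFTR restores β-galactosidase activity measured by chemiluminescence.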 The note with it: U2OS cell line, 16h compound incubation; for EC50: EC50, F508del-CFTR cell surface expression, geomean values; for Emax: U2OS, in relation to the Emax of the corrector lumacaftor (=100%), arithmetic mean values.
human F508del-CFTR, sequence (P13569 with tags, fused parts or gaps DEL508-508): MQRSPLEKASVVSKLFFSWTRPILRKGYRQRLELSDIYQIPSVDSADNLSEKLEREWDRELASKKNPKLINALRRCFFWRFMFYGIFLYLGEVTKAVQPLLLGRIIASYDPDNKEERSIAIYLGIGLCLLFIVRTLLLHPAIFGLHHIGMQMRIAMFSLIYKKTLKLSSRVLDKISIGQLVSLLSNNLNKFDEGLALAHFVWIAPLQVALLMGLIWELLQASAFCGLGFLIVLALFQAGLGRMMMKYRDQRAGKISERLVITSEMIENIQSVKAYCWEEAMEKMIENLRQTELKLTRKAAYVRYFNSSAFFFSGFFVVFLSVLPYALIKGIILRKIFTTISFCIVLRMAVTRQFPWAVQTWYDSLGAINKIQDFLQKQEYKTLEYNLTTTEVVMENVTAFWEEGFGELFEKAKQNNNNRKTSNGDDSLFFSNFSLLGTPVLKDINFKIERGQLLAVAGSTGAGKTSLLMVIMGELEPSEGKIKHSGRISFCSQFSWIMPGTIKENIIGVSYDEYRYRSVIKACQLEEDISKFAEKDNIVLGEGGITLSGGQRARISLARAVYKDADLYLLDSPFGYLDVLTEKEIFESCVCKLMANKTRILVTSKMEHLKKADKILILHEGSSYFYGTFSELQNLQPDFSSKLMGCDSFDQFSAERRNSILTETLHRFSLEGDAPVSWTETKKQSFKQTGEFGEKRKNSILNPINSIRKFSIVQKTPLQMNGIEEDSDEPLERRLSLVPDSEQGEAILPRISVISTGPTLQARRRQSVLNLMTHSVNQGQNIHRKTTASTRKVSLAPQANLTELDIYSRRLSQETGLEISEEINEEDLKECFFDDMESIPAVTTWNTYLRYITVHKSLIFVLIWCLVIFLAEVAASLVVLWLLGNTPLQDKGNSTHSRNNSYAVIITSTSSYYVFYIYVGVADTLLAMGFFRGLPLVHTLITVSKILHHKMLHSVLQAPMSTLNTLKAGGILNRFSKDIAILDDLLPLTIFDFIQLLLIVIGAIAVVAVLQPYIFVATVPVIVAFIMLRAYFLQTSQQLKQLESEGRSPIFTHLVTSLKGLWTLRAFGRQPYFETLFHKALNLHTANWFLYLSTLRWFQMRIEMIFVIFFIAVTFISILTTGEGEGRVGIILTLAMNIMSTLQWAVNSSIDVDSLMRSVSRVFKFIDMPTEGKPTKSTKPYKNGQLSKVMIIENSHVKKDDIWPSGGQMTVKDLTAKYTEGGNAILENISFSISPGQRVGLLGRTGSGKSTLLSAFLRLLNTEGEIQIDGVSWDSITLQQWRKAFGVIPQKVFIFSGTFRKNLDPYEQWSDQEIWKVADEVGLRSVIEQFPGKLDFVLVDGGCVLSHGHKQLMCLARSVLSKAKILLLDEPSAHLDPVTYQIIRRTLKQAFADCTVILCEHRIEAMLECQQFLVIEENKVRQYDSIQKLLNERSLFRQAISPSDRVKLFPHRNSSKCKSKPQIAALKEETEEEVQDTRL

With `COCCCc1cnn(CCNC(=O)[C@@H]2CC(=O)N(C)[C@@H](CC(C)C)C(=O)N(C)C3(CC3)C(=O)N[C@H](Cc3ccccc3)COc3cnc4ccc(F)cc4c3C(=O)N2)c1` [Example 174, (3′S,7′S,13′R)-13′-benzyl-20′-fluoro-7′-isobutyl-N-(2-(4-(3-methoxypropyl)-1H-pyrazol-1-yl)ethyl)-6′,9′-dimethyl-1′,5′,8′,11′-tetraoxo-2′,3′,4′,5′,6′,7′,8′,9′,11′,12′,13′,14′-dodecahydro-1′H-spiro[cyclopropane-1,10′-[1]oxa[4,7,10,14]tetraazacycloheptadecino[17,16-c]quinoline]-3′-carboxamide], the EC50 amounted to 954 nM and the Emax turned out to be 194%.

Take `COc1cccc(C(F)(F)CNC(=O)[C@@H]2CC(=O)N(C)[C@@H](CC(C)C)C(=O)N(C)C3(CC3)C(=O)N[C@H](Cc3ccccc3)COc3cnc4ccccc4c3C(=O)N2)c1` [Example 175, (3′S,7′S,13′R)-13′-benzyl-N-(2,2-difluoro-2-(3-methoxyphenyl)ethyl)-7′-isobutyl-6′,9′-dimethyl-1′,5′,8′,11′-tetraoxo-2′,3′,4′,5′,6′,7′,8′,9′,11′,12′,13′,14′-dodecahydro-1′H-spiro[cyclopropane-1,10′-[1]oxa[4,7,10,14]tetraazacycloheptadecino[17,16-c]quinoline]-3′-carboxamide]: the EC50 came out at 229 nM and the Emax came out at 179%.

Take `COc1nccc2c1C(=O)N[C@H](C(=O)NCCc1cnn(C3CC3)c1)CC(=O)N(C)[C@@H](CC(C)C)C(=O)N1CCCC[C@@H]1C(=O)N[C@H](Cc1ccccc1)CO2` [Example 176, (7S,11S,17aR,20R)-20-benzyl-N-(2-(1-cyclopropyl-1H-pyrazol-4-yl)ethyl)-11-isobutyl-4-methoxy-10-methyl-5,9,12,18-tetraoxo-5,6,7,8,9,10,11,12,15,16,17,17a,18,19,20,21-hexadecahydro-14H-dipyrido[2,1-f:3′,4′-p][1]oxa[4,7,10,14]tetraazacycloheptadecine-7-carboxamide]: the half-maximal effective concentration (EC50) turned out to be 821 nM and the Emax is 245%.

Regarding `COc1nccc2c1C(=O)N[C@H](C(=O)NCCc1cc(C(F)(F)F)no1)CC(=O)N(C)[C@@H](CC(C)C)C(=O)N1CCCC[C@@H]1C(=O)N[C@H](Cc1ccccc1)CO2` [Example 177, (7S,11S,17aR,20R)-20-benzyl-11-isobutyl-4-methoxy-10-methyl-5,9,12,18-tetraoxo-N-(2-(3-(trifluoromethyl)isoxazol-5-yl)ethyl)-5,6,7,8,9,10,11,12,15,16,17,17a,18,19,20,21-hexadecahydro-14H-dipyrido[2,1-f:3′,4′-p][1]oxa[4,7,10,14]tetraazacycloheptadecine-7-carboxamide], the EC50 stood at 647 nM and the maximal response (Emax) is 248%.

Regarding `COc1nccc2c1C(=O)N[C@H](C(=O)NCCc1nc(C(F)(F)F)no1)CC(=O)N(C)[C@@H](CC(C)C)C(=O)N1CCCC[C@@H]1C(=O)N[C@H](Cc1ccccc1)CO2` [Example 178, (7S,11S,17aR,20R)-20-benzyl-11-isobutyl-4-methoxy-10-methyl-5,9,12,18-tetraoxo-N-(2-(3-(trifluoromethyl)-1,2,4-oxadiazol-5-yl)ethyl)-5,6,7,8,9,10,11,12,15,16,17,17a,18,19,20,21-hexadecahydro-14H-dipyrido[2,1-f:3′,4′-p][1]oxa[4,7,10,14]tetraazacycloheptadecine-7-carboxamide], the EC50 is 680 nM and the Emax was 237%.

Take `COc1nccc2c1C(=O)N[C@H](C(=O)NCCn1cc(C3CC3)cn1)CC(=O)N(C)[C@@H](CC(C)C)C(=O)N1CCCC[C@@H]1C(=O)N[C@H](Cc1ccccc1)CO2` [Example 179, (7S,11S,17aR,20R)-20-benzyl-N-(2-(4-cyclopropyl-1H-pyrazol-1-yl)ethyl)-11-isobutyl-4-methoxy-10-methyl-5,9,12,18-tetraoxo-5,6,7,8,9,10,11,12,15,16,17,17a,18,19,20,21-hexadecahydro-14H-dipyrido[2,1-f:3′,4′-p][1]oxa[4,7,10,14]tetraazacycloheptadecine-7-carboxamide]: the half-maximal effective concentration (EC50) was 731 nM and the Emax came out at 251%.

Consider `COc1cccc(CCNC(=O)[C@@H]2CC(=O)N(C)[C@@H](CC(C)C)C(=O)N3CCCC[C@@H]3C(=O)N[C@H](Cc3ccccc3)COc3ccnc(OC)c3C(=O)N2)c1` [Example 180, (7S,11S,17aR,20R)-20-benzyl-11-isobutyl-4-methoxy-N-(3-methoxyphenethyl)-10-methyl-5,9,12,18-tetraoxo-5,6,7,8,9,10,11,12,15,16,17,17a,18,19,20,21-hexadecahydro-14H-dipyrido[2,1-f:3′,4′-p][1]oxa[4,7,10,14]tetraazacycloheptadecine-7-carboxamide], for which the EC50 is 388 nM and the Emax is 257%.

For the compound `COc1nccc2c1C(=O)N[C@H](C(=O)NCCc1ccc(-c3ncccn3)cc1)CC(=O)N(C)[C@@H](CC(C)C)C(=O)N1CCCC[C@@H]1C(=O)N[C@H](Cc1ccccc1)CO2` [Example 181, (7S,11S,17aR,20R)-20-benzyl-11-isobutyl-4-methoxy-10-methyl-5,9,12,18-tetraoxo-N-(4-(pyrimidin-2-yl)phenethyl)-5,6,7,8,9,10,11,12,15,16,17,17a,18,19,20,21-hexadecahydro-14H-dipyrido[2,1-f:3′,4′-p][1]oxa[4,7,10,14]tetraazacycloheptadecine-7-carboxamide], the EC50 is 718 nM and the maximal response (Emax) came out at 251%.

For the compound `COc1nccc2c1C(=O)N[C@H](C(=O)NCCc1nc(-c3ccccc3)no1)CC(=O)N(C)[C@@H](CC(C)C)C(=O)N1CCCC[C@@H]1C(=O)N[C@H](Cc1ccccc1)CO2` [Example 182, (7S,11S,17aR,20R)-20-benzyl-11-isobutyl-4-methoxy-10-methyl-5,9,12,18-tetraoxo-N-(2-(3-phenyl-1,2,4-oxadiazol-5-yl)ethyl)-5,6,7,8,9,10,11,12,15,16,17,17a,18,19,20,21-hexadecahydro-14H-dipyrido[2,1-f:3′,4′-p][1]oxa[4,7,10,14]tetraazacycloheptadecine-7-carboxamide], the EC50 is 406 nM and the maximal response (Emax) worked out at 270%.

As to `COc1nccc2c1C(=O)N[C@H](C(=O)NCCc1ccccc1)CC(=O)N(C)[C@@H](CC(C)C)C(=O)N1CCCC[C@@H]1C(=O)N[C@H](Cc1ccccc1)CO2` [Example 183, (7S,11S,17aR,20R)-20-benzyl-11-isobutyl-4-methoxy-10-methyl-5,9,12,18-tetraoxo-N-phenethyl-5,6,7,8,9,10,11,12,15,16,17,17a,18,19,20,21-hexadecahydro-14H-dipyrido[2,1-f:3′,4′-p][1]oxa[4,7,10,14]tetraazacycloheptadecine-7-carboxamide], the 50% effective concentration (EC50) is 621 nM and the Emax was 237%.

`COc1nccc2c1C(=O)N[C@H](C(=O)NCCc1ccc(Br)cc1)CC(=O)N(C)[C@@H](CC(C)C)C(=O)N1CCCC[C@@H]1C(=O)N[C@H](Cc1ccccc1)CO2` [Example 184, (7S,11S,17aR,20R)-20-benzyl-N-(4-bromophenethyl)-11-isobutyl-4-methoxy-10-methyl-5,9,12,18-tetraoxo-5,6,7,8,9,10,11,12,15,16,17,17a,18,19,20,21-hexadecahydro-14H-dipyrido[2,1-f:3′,4′-p][1]oxa[4,7,10,14]tetraazacycloheptadecine-7-carboxamide]: the half-maximal effective concentration (EC50) came to 410 nM and the maximum response (Emax) came to 205%.

Source of the values: patent US20240208992A1, “MACROCYCLES AS CFTR MODULATORS” (Idorsia Pharmaceuticals Ltd, priority 2021, published 2024).
